From US12484584B2, “Methods and uses of a mixture comprising alpha-cypermethrin and dinotefuran for controlling bed bugs” (BASF AGRO B.V., priority 2020, dated 2025) come the findings set out here.

Where two headings read alike, the source gives them in different places.

The experiment relates to C. lectularius. Kind of experiment: residual contact assay in treated glass vials, with Colby synergy analysis. To be noted: Cimex lectularius, 72 h; for mortality at 2 ppm: 2 ppm dinotefuran; for mortality at 4 ppm: 4 ppm dinotefuran; for mortality at 6 ppm: 6 ppm dinotefuran; for mortality at 8 ppm: 8 ppm dinotefuran; for mortality at 1 ppm: 1 ppm alpha-cypermethrin. The experiment is classed as in vivo. Here is the method:
Glass vials (20 mL scintillation) were treated with 445 μL of varying concentrations of α-cypermethrin dissolved in acetone, respectively dinotefuran or mixtures of α-cypermethrin and dinotefuran in the indicated ratios. Vials were turned on their sides and placed on an automated roller table. The vials were rolled (6 rpm) uncapped to allow an even coating of the treatment. After rolling, vials were allowed to completely dry for at least an hour. Each treatment was replicated five times. Approximately six bed bugs, Cimex lectularius, were placed into each vial and were exposed to treatments at room temperature for the duration of the study.
After dose response testing, assays combining two active ingredients were conducted using the same method described above. The rates used in the combination treatments for each active ingredient, α-cypermethrin and dinotefuran, were the same concentrations used when they were tested independently.
When applied in combination, the toxicological interaction between two compounds is classified based on the resultant impact on the observed effect. The interaction is termed antagonistic when the observed effect is less than the Colby expected mortality based on the responses of the two compounds applied independently at the same doses. When the observed effect of two compounds applied in combination is equal to that of the Colby expected mortality based on the responses of the two compounds applied independently, the relationship is described as additive. Finally, a synergistic interaction means that the effect of the two compounds applied in combination is greater than the Colby expected mortality based on the responses of the two compounds applied independently at the same doses.
Ataxia+mortality data at 48 hours were used to determine whether there was a synergistic effect in the combined use of α-cypermethrin and dinotefuran.
Abbott's correction for control mortality and the Colby method for testing synergy were used to analyze combination data. The method is as follows: Abbott's corrected mortality per observation (at 3 DAE)=[(% observed mortality−% control mortality)/(100%−% control mortality)]×100. Colby's expected mortality per combination observation=% mortality (A)+% mortality (B)−(% mortality (A)×% mortality (B))/100. Synergy ratio=% observed mortality/% Colby expected mortality.
Additive interactions have synergy ratios equal to 1, antagonistic interactions have synergy ratios of less than 1, and synergistic interactions have synergy ratios of greater than 1.

Setting [1] is: corrected for control mortality, read-out: Abbott's CM (Abbott's corrected mortality).
Where [2] appears, read: residual contact, read-out: Mortality (%) @ 72 h.

As usually defined, the mortality is the percentage killed. As for `CNC(=N[N+](=O)[O-])NCC1CCOC1` (racemic) [dinotefuran, (RS)-1-methyl-2-nitro-3-(tetrahydro-3-furylmethyl) guanidine], under setting [1], the mortality at 2 ppm amounted to 3.4%, the mortality at 4 ppm turned out to be 3.4%, the mortality at 6 ppm was 3.4% and the mortality at 8 ppm came to 3.4%. Moreover, under setting [2], the mortality at 2 ppm was found to be 6.7%, the mortality at 4 ppm turned out to be 6.7%, the mortality at 6 ppm is 6.7% and the mortality at 8 ppm came to 6.7%.
Consider `CC1(C)C(C=C(Cl)Cl)C1C(=O)OC(C#N)c1cccc(Oc2ccccc2)c1` (racemic) [alpha-cypermethrin, racemate comprising (R)-α-cyano-3-phenoxybenzyl (1S, 3S)-3-(2,2-dichlorovinyl)-2,2-dimethylcyclopropanecarboxylate; (S)-α-cyano-3-phenoxybenzyl (1R, 3R)-3-(2,2-dichlorovinyl)-2,2-dimethylcyclopropanecarboxylate], for which the mortality at 1 ppm by setting is: under setting [1], 24.1%; under setting [2], 26.7%.
